Entries after “also recorded” stand apart in the source; their conditions may differ.
Experiments:
Format in all cases: cell-based, human
RTP/Drg1 mRNA = assay: Northern blot of RTP/Drg1 mRNA in MDA-MB-231 cells; settings: for effect on hypoxic up-regulation of RTP/Drg1 mRNA: 1% oxygen + 30% CO, 24 h; for effect of CO on up-regulation of RTP/Drg1 mRNA induced by cobalt chloride, Tiron and DFO: hypoxic conditions with CO; for levels of RTP/Drg1 mRNA: 20% oxygen, up to 72 h, 100 μM cobalt chloride, 30 mM Tiron or 100 μM DFO
Protocol: (§1) To determine whether hypoxia regulates the expression of certain genes (e.g., PAI-1, uPAR, RTP/Drg1) via an iron-containing heme protein, cells were cultured for up to 72 h at 20% oxygen in the presence or absence of either 100 μM cobalt chloride, or 30 mM sodium 4,5-dihydroxybenzene-1,3-disulfonate (Tiron), or 100 μM desferrioxamine mesylate (DFO) (Sigma Chemical CO., St. Louis, Mo.). Further confirmation of the role of a heme protein in hypoxic responses can be achieved by culturing cells under hypoxia in the presence of carbon monoxide, which maintains the heme protein in the oxy state and thereby blocks heme protein-mediated hypoxic responses. Thus, cells were also cultured for 24 h at 37° C. under hypoxic conditions in the presence of 30% carbon monoxide.
(§2) Northern Blot Analysis. Total RNA was isolated from cell lines as described above. Aliquots of 20 μg were denatured and subjected to electrophoresis in 1% agarose-formaldehyde gels (Sambrook, J., Fritsch, E. F., and Maniatis, T. Molecular Cloning: A Laboratory Manual, Cold Spring Harbor Laboratory, Cold Spring Harbor, N.Y. (1989)). RNA was transferred to nylon membranes (Micron Separations, Inc., Westboro, Mass.). After prehybridization at 42° C. for 2-3 h in 50% formamide, 5×Denhardt's solution, 0.5% sodium dodecyl sulfate (SDS), 6×SSC (1×SSC: 0.15M NaCl, 15 mM sodium citrate, pH 7.0), and 100 μg/mL denatured salmon sperm DNA, membranes were hybridized for a period of time of overnight (˜18 h) to about 72 h at 42° C. with a cDNA probe (e.g., RTP/Drg1, PAI-1 (PAI-1 cDNA provided by Dr. Keith McCrae, Temple University School of Medicine, Philadelphia, Pa.), uPAR (Higazi A, et al., J Biol Chem 266:12752, (1995)) pre-labeled with [^32P]-dCTP using a Pharmacia Oligolabelling kit (Pharmacia Biotech, Piscataway, N.J.). The hybridization solution contained 6×SSC, 0.5% SDS, 100 μg/mL denatured salmon sperm DNA, 50% formamide and cDNA probe. After hybridization, the membranes were washed with 2×SSC and 0.5% SDS at room temperature for 15 min, 2×SSC and 0.1% SDS at room temperature for 15 min, and 0.1×SSC and 0.5% SDS for 30 min. Dupont Reflection NEF film (Dupont Canada, Inc., Mississauga, ON) was exposed to the membranes for 1-3 days at −80° C. Bands on radiographic film were analyzed using a SigmaGel gel analysis software package (Jandel Scientific Software, San Rafael, Calif.).

HTR-8/SVneo cells = assay: In vitro invasion of HTR-8/SVneo cells through Matrigel; settings: for Invasion Index (%) ± SE: standard = 100; for increase in invasion: 20% oxygen, 100 μM cobalt chloride or 30 mM Tiron
Protocol: In vitro invasion assay. An assay which employs reconstituted basement membrane (Matrigel; Collaborative Biomedical Products, Bedford, Mass.) as the substrate for invasion was used to determine the effect of hypoxia on the invasiveness of tumor cells. Costar Transwell inserts (6.5 mm diameter polycarbonate membrane, 8 μm pore; Corning Costar Corp., Cambridge, Mass.) were coated with 100 μl of a 1 mg/ml solution of Matrigel diluted in cold serum-free culture medium, placed in the wells of a 24-well tissue culture plate and allowed to air-dry for 12 h in a laminar flow cabinet. After reconstituting the Matrigel by incubating for 1 h with 100 μl of serum-free medium, 5.0×10^4 cells in 100 μl aliquots of serum-containing medium were added to the Transwells. […] Cells which invaded through the Matrigel and the pores of the underlying membrane were fixed for 10 min in Carnoy's fixative (25% acetic acid, 75% methanol) and stained for 3 h in 1% toluidine blue, 1% sodium borate. Following several washes in tap water, the membranes were removed with a small scalpel blade, placed on a microscope slide and coverslipped. The invasion index' was then determined by counting, under a microscope, the total number of stained cells in the underside of the polycarbonate membranes.
Alternatively, cells (e.g., HTR-8/SVneo, MDA-MB-231) were labeled by incubation for 24 h in the presence of 10 μCi/ml [^3H]-thymidine. The cells were then harvested, adjusted to a concentration of 5.0×10^5/ml, and 100 μl aliquots added in triplicate to the upper wells of the invasion chambers. After a 24-h incubation, cells in the upper and lower compartments of the chambers were harvested. The invasion index, reflecting the percentage of added cells which had invaded the Matrigel was determined by measurement of the radioactivity in the upper and lower compartments, as well as in the membrane.

PAI-1 mRNA = assay: Northern blot of PAI-1 mRNA in HTR-8/SVneo cells; settings: for increase in PAI-1 mRNA (3.0-kb and 2.3-kb transcripts): 24 hours in the presence of compound
Protocol: as §1, with “Thus, cells were also cultured for 24 h at 37° C. under hypoxic conditions in the presence of 30% carbon monoxide.” left out
as §2, with “After hybridization, the membranes were washed with 2×SSC and 0.5% SDS at room temperature for 15 min, 2×SSC and 0.1% SDS at room temperature for 15 min, and 0.1×SSC and 0.5% SDS for 30 min. Dupont Reflection NEF film (Dupont Canada, Inc., Mississauga, ON) was exposed to the membranes for 1-3 days at −80° C.” left out, “Calif.). […]” for “Calif.).”

RTP/Drg1 protein = assay: Western blot of RTP/Drg1 protein in MDA-MB-231 cells; settings: for reduction in RTP/Drg1 protein levels (hypoxic up-regulation), densitometry: 1% oxygen + 30% CO, 24 h; for effect of CO on up-regulation of RTP/Drg1 protein induced by cobalt chloride, Tiron and DFO: hypoxic conditions with CO; for levels of RTP/Drg1 protein: 20% oxygen, up to 72 h, 100 μM cobalt chloride, 30 mM Tiron or 100 μM DFO
Protocol: as §1
Western Blot Analysis. To examine levels of RTP/Drg1 protein, cells were lysed with buffer containing 40 mM HEPES pH 7.2, 100 mM NaCl, 20% glycerol, 0.1 mM EDTA pH 8.0, 0.2% Triton X-100 (polyoxyethylene (10) isooctylphenyl ether), 1 mM DTT, and 2 mM PMSF, and centrifuged briefly at 4° C. The supernatants were collected and stored at −80° C. until use. SDS-PAGE was performed and resolved proteins were transferred to Immobilon-P membranes (Millipore Corp., Bedford, Mass.) using a semi-dry transfer cell (Bio-Rad Laboratories, Mississauga, ON). Membranes were blocked by incubation overnight at 4° C. in a PBS-buffered solution containing 0.01% Tween 20 (polyoxyethylene(20) sorbitan monolaurate) (PBS-T) and 5% casein. The blots were then incubated with polyclonal rabbit anti-Drg1 antiserum followed by incubation with a peroxidase labeled goat anti-rabbit IgG secondary antibody (Vector Lab. Inc., Burlingame, Calif.). Antigen was detected by enhanced chemiluminescence (ECL, Amersham Canada Inc., Oakville, ON) and exposure of the membrane onto Dupont Reflection NEF film (Dupont Canada, Inc., Mississauga ON).

SMILES | effect on hypoxic up-regulation of RTP/Drg1 mRNA (RTP/Drg1 mRNA) | effect on hypoxic up-regulation of RTP/Drg1 mRNA (RTP/Drg1 mRNA; listed as CO) | effect of CO on up-regulation of RTP/Drg1 mRNA induced by cobalt chloride, Tiron and DFO (RTP/Drg1 mRNA) | effect of CO on up-regulation of RTP/Drg1 mRNA induced by cobalt chloride, Tiron and DFO (RTP/Drg1 mRNA; listed as CO) | inhibition of hypoxia-stimulated invasion (HTR-8/SVneo cells; 1% oxygen + 20% carbon monoxide) | Invasion Index (%) ± SE (HTR-8/SVneo cells; Hypoxia (1% O2) + 20% CO) | effect on hypoxia-mediated increase in PAI-1 mRNA levels (PAI-1 mRNA; 1% oxygen + 20% carbon monoxide, 24 hours) | reduction in RTP/Drg1 protein levels (hypoxic up-regulation), densitometry (RTP/Drg1 protein) | reduction in RTP/Drg1 protein levels (hypoxic up-regulation), densitometry (RTP/Drg1 protein; listed as CO) | effect of CO on up-regulation of RTP/Drg1 protein induced by cobalt chloride, Tiron and DFO (RTP/Drg1 protein) | effect of CO on up-regulation of RTP/Drg1 protein induced by cobalt chloride, Tiron and DFO (RTP/Drg1 protein; listed as CO) | levels of RTP/Drg1 mRNA (RTP/Drg1 mRNA) | increase in invasion (HTR-8/SVneo cells) | Invasion Index (%) ± SE (HTR-8/SVneo cells; Standard (20% O2) + compound) | increase in PAI-1 mRNA (3.0-kb and 2.3-kb transcripts) (PAI-1 mRNA) | levels of RTP/Drg1 protein (RTP/Drg1 protein)
[C-]#[O+] [carbon monoxide] | abrogated | substantial decrease in mRNA levels | did not inhibit | unable to inhibit | 87% | 104.0 ± 8.5% | prevented most of the hypoxia-mediated increase in PAI-1 mRNA levels; also recorded: abolished the effect of hypoxia on PAI-1 mRNA levels | abrogated | 57% | did not inhibit | unable to inhibit |  |  |  |  | 
O=S(=O)([O-])c1cc(O)c(O)c(S(=O)(=O)[O-])c1.[Na+].[Na+] [Tiron, sodium 4,5-dihydroxybenzene-1,3-disulfonate] |  |  |  |  |  |  |  |  |  |  |  | time-dependent increases in RTP/Drg1 mRNA | 29.3±12.7% | 129.3 ± 12.7% | substantial increase | time-dependent increases in RTP/Drg1 protein
[Cl][Co][Cl] [cobalt chloride] |  |  |  |  |  |  |  |  |  |  |  | time-dependent increases in RTP/Drg1 mRNA | 24.6±8.4% | 124.6 ± 8.4% | about 2 fold | time-dependent increases in RTP/Drg1 protein

Reference: US6376169B1, “Method for diagnosing a vascular condition” (Queens University at Kingston, priority 1998, dated 2002)
